The subject of this experiment is P388 leukemia ip, CD2F1 mice, survival T/C. As to the kind of experiment: NCI In Vivo Anticancer Drug Screen. Data for tumor model P388 Leukemia (intraperitoneal) in CD2F1 (CDF1) mice. The conditions noted are these: endpoint: median survival time, higher = longer survival. A digest of the protocol:
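Mice carrying the transplanted tumor received test compound or vehicle. Survival was recorded in each group, and the value is the treated-group measurement divided by that of the vehicle-treated control group.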

[1] abbreviates: dose: 100.0 mg/kg/injection, schedule: Q01DX009 (ip), vehicle: Klucel (hydroxypropylcellulose) (HPC).
[2] abbreviates: dose: 200.0 mg/kg/injection, schedule: Q01DX009 (ip), vehicle: Klucel (hydroxypropylcellulose) (HPC).
Setting [3] is: dose: 50.0 mg/kg/injection, schedule: Q01DX009 (ip), vehicle: Klucel (hydroxypropylcellulose) (HPC).
Setting [4] is: dose: 50.0 mg/kg/injection, schedule: Q01DX005 (ip), vehicle: saline with Tween-80.
[5] abbreviates: dose: 100.0 mg/kg/injection, schedule: Q01DX005 (ip), vehicle: saline with Tween-80.
[6] abbreviates: dose: 200.0 mg/kg/injection, schedule: Q01DX005 (ip), vehicle: saline with Tween-80.
Setting [7] is: dose: 50.0 mg/kg/injection, schedule: Q01DX005 (ip), vehicle: saline.
[8] abbreviates: dose: 100.0 mg/kg/injection, schedule: Q01DX005 (ip), vehicle: saline.
Setting [9] is: dose: 200.0 mg/kg/injection, schedule: Q01DX005 (ip), vehicle: saline.
Setting [10] is: dose: 100.0 mg/kg/injection, schedule: Q04DX003 (ip), vehicle: saline with Tween-80.
Setting [11] is: dose: 200.0 mg/kg/injection, schedule: Q04DX003 (ip), vehicle: saline with Tween-80.

Values joined by “and” are separate entries in the source; they are usually repeats but may differ in a detail not shown here. Equal entries are not always repeated. Inconclusive results and toxic doses are left out.

Turning to `COc1ccccc1/C=C/C1=C(C)C(=O)CC(c2ccccc2OC)C1C` (stereo unspecified), the T/C is 100 % of control under setting [1]; 98 % of control under setting [2]; 92 % of control (dose: 400.0 mg/kg/injection, schedule: Q01DX009 (ip), vehicle: Klucel (hydroxypropylcellulose) (HPC)).

Turning to `CSC(SC)=C(C#N)c1nc(SC)c(C#N)c(SC)n1`, the T/C is 102 % of control (dose: 50.0 mg/kg/injection, schedule: Q04DX003 (ip), vehicle: saline) and 112 % of control (dose: 100.0 mg/kg/injection, schedule: Q04DX003 (ip), vehicle: saline).

Take `Cc1ccc(S(=O)(=O)C(Sc2ccccc2)=S=NC(C)(C)C)cc1`: the T/C was 104 % of control under setting [3], 98 % of control under setting [1] and 109 % of control under setting [2].

Regarding `CC1(/C=C/Cl)CC(Cl)(CBr)C(Cl)CC1Cl` (stereo unspecified), the T/C reads like this: (dose: 8.75 mg/kg/injection, schedule: Q01DX005 (ip), vehicle: Klucel (hydroxypropylcellulose) (HPC)) 97 % of control; (dose: 17.5 mg/kg/injection, schedule: Q01DX005 (ip), vehicle: Klucel (hydroxypropylcellulose) (HPC)) 91 % of control; (dose: 35.0 mg/kg/injection, schedule: Q01DX005 (ip), vehicle: Klucel (hydroxypropylcellulose) (HPC)) 97 % of control; (dose: 70.0 mg/kg/injection, schedule: Q01DX005 (ip), vehicle: Klucel (hydroxypropylcellulose) (HPC)) 91 % of control.

Take `N#Cc1c2ccccc2nc2ccccc12`: the T/C under setting [4] is 100 % of control, the T/C under setting [5] is 96 % of control and the T/C under setting [6] was 89 % of control.

As for `C=CC(C)(C)C1Oc2cc(O)ccc2C(=O)C1c1ccc(OC)c(OC)c1O` (stereo unspecified), the T/C runs as follows: (dose: 100.0 mg/kg/injection, schedule: Q04DX003 (ip), vehicle: Klucel (hydroxypropylcellulose) (HPC)) 92 % of control; (dose: 200.0 mg/kg/injection, schedule: Q04DX003 (ip), vehicle: Klucel (hydroxypropylcellulose) (HPC)) 100 % of control; (dose: 400.0 mg/kg/injection, schedule: Q04DX003 (ip), vehicle: Klucel (hydroxypropylcellulose) (HPC)) 92 % of control.

As to `COc1cc(C=Nc2cccc3c2NCCC3)cc(OC)c1OC`, the T/C was 105 % of control (dose: 100.0 mg/kg/injection, schedule: Q01DX001 (ip), vehicle: saline with Tween-80); 98 % of control (dose: 200.0 mg/kg/injection, schedule: Q01DX001 (ip), vehicle: saline with Tween-80); 98 % of control (dose: 400.0 mg/kg/injection, schedule: Q01DX001 (ip), vehicle: saline with Tween-80).

`O=C(Nc1ncc([N+](=O)[O-])s1)C(Cl)Cl`: the T/C runs as follows: under setting [3], 118 % of control; under setting [1], 111 % of control.

Turning to `CC(C)N(Cc1ccccc1)S(=O)(=O)c1n[nH]c(C(C)(C)C)n1`, the T/C runs as follows: under setting [4], 94 % of control; under setting [5], 86 % of control.

As for `CCCCCC(CN(C)C)C(=O)/C=C/c1ccccc1` (stereo unspecified), the T/C is, setting by setting: (dose: 12.5 mg/kg/injection, schedule: Q01DX009 (ip), vehicle: saline) 102 % of control; (dose: 25.0 mg/kg/injection, schedule: Q01DX009 (ip), vehicle: saline) 94 % of control; (dose: 50.0 mg/kg/injection, schedule: Q01DX009 (ip), vehicle: saline) 104 % of control; (dose: 100.0 mg/kg/injection, schedule: Q01DX009 (ip), vehicle: saline) 105 % of control.

`O=C(NC(=NC(=Nc1ccccc1)c1ccccc1)c1ccccc1)c1ccccc1`: the T/C was 99 % of control (dose: 50.0 mg/kg/injection, schedule: Q01DX009 (ip), vehicle: saline with Tween-80); 102 % of control (dose: 100.0 mg/kg/injection, schedule: Q01DX009 (ip), vehicle: saline with Tween-80); 99 % of control (dose: 200.0 mg/kg/injection, schedule: Q01DX009 (ip), vehicle: saline with Tween-80).

Consider `CN1CCCC2Cc3ccccc3CC21` (stereo unspecified), for which the T/C is 97 % of control (dose: 6.25 mg/kg/injection, schedule: Q04DX002 (ip), vehicle: Klucel (hydroxypropylcellulose) (HPC)); 102 % of control (dose: 12.5 mg/kg/injection, schedule: Q04DX002 (ip), vehicle: Klucel (hydroxypropylcellulose) (HPC)); 104 % of control (dose: 25.0 mg/kg/injection, schedule: Q04DX002 (ip), vehicle: Klucel (hydroxypropylcellulose) (HPC)); 101 % of control (dose: 100.0 mg/kg/injection, schedule: Q04DX002 (ip), vehicle: Klucel (hydroxypropylcellulose) (HPC)).

On to `N/C=N/OCc1ccccc1`, for which the T/C under setting [7] was 101 % of control, the T/C under setting [8] was 104 % of control and the T/C under setting [9] was 105 % of control.

`CC(O)[C@H]1CC[C@H]2[C@@H]3CC(=O)[C@H]4C[C@H](O)[C@H](O)C[C@]4(C)[C@H]3CC[C@]12C` (stereo partly specified): the T/C is 91 % of control (dose: 100.0 mg/kg/injection, schedule: Q04DX002 (ip), vehicle: saline with Tween-80); 90 % of control (dose: 200.0 mg/kg/injection, schedule: Q04DX002 (ip), vehicle: saline with Tween-80); 90 % of control (dose: 400.0 mg/kg/injection, schedule: Q04DX002 (ip), vehicle: saline with Tween-80).

For `O=C(Cc1nc2ccc([N+](=O)[O-])cc2nc1CC(=O)c1cccnc1)c1cccnc1`, the T/C runs as follows: (dose: 60.0 mg/kg/injection, schedule: Q01DX005 (ip), vehicle: saline with Tween-80) 97 % of control; (dose: 120.0 mg/kg/injection, schedule: Q01DX005 (ip), vehicle: saline with Tween-80) 92 % of control; (dose: 240.0 mg/kg/injection, schedule: Q01DX005 (ip), vehicle: saline with Tween-80) 90 % of control.

On to `COC(=O)C(=O)C(C(=O)c1ccncc1)c1nc2n(c1O)C(=N)N=N2` (stereo unspecified), for which the T/C under setting [7] is 97 % of control, the T/C under setting [8] was 97 % of control and the T/C under setting [9] is 100 % of control.

Turning to `O=C(c1ccccc1)C1CCCN(c2ccccc2)S1(=O)=O` (stereo unspecified), the T/C by setting is: under setting [10], 98 % of control; under setting [11], 104 % of control; (dose: 400.0 mg/kg/injection, schedule: Q04DX003 (ip), vehicle: saline with Tween-80) 94 % of control.

Consider `CCO/C=C1\SC(=S)N(c2ccc(C(=O)O)cc2)C1=O`, for which the T/C is, setting by setting: (dose: 4.4 mg/kg/injection, schedule: Q01DX009 (ip), vehicle: saline with Tween-80) 104 % of control; (dose: 6.6 mg/kg/injection, schedule: Q01DX009 (ip), vehicle: saline with Tween-80) 109 % of control; (dose: 10.0 mg/kg/injection, schedule: Q01DX009 (ip), vehicle: saline with Tween-80) 109 % of control; (dose: 15.0 mg/kg/injection, schedule: Q01DX009 (ip), vehicle: saline with Tween-80) 109 % of control; under setting [10], 118 % of control; under setting [11], 113 % of control.

In the case of `O=C1C2CN(Cc3ccccc3)CC2C(=O)N1c1ccccc1` (stereo unspecified), the T/C was 102 % of control (dose: 60.0 mg/kg/injection, schedule: Q01DX005 (ip), vehicle: Klucel (hydroxypropylcellulose) (HPC)); 97 % of control (dose: 120.0 mg/kg/injection, schedule: Q01DX005 (ip), vehicle: Klucel (hydroxypropylcellulose) (HPC)); 100 % of control (dose: 240.0 mg/kg/injection, schedule: Q01DX005 (ip), vehicle: Klucel (hydroxypropylcellulose) (HPC)).

For `COc1ccc2c(c1)c(NCCCCCC#N)cc(C)[n+]2C`, the T/C by setting is: (dose: 12.5 mg/kg/injection, schedule: Q01DX005 (ip), vehicle: saline with Tween-80) 100 % of control; (dose: 25.0 mg/kg/injection, schedule: Q01DX005 (ip), vehicle: saline with Tween-80) 100 % of control; under setting [4], 105 % of control.

For the compound `O=C(CNC1=NCCN1)Nc1ccc(NC(=O)c2ccc(C(=O)Nc3ccc(NC(=O)CNC4=NCCN4)cc3)cc2)cc1`, the T/C is 118 % of control and 124 % of control under setting [4]; 189 % of control under setting [6]; 96 % of control (dose: 400.0 mg/kg/injection, schedule: Q01DX005 (ip), vehicle: saline with Tween-80).

Consider `CC1(C(Cl)(Cl)Cl)C=CC(=NO)C=C1` (stereo unspecified), for which the T/C was 110 % of control (dose: 50.0 mg/kg/injection, schedule: Q01DX005 (ip), vehicle: Klucel (hydroxypropylcellulose) (HPC)); 107 % of control (dose: 100.0 mg/kg/injection, schedule: Q01DX005 (ip), vehicle: Klucel (hydroxypropylcellulose) (HPC)); 110 % of control (dose: 200.0 mg/kg/injection, schedule: Q01DX005 (ip), vehicle: Klucel (hydroxypropylcellulose) (HPC)).

Regarding `N=c1c2c(ncn1CCc1ccccc1)CCN(Cc1ccccc1)C2`, the T/C by setting is: (dose: 20.0 mg/kg/injection, schedule: Q01DX009 (ip), vehicle: saline with Tween-80) 91 % of control; (dose: 40.0 mg/kg/injection, schedule: Q01DX009 (ip), vehicle: saline with Tween-80) 94 % of control.

(Values after PubChem BioAssay AID330 (DTP/NCI, 2004).)
